Experimental data taken from US20250121087A1, “ANTIBODY-DRUG CONJUGATES COMPRISING ANTI-B7-H3 ANTIBODIES” (priority 2020, published 2025).

Tested on: JIMT-1 xenograft
Assay: In vivo efficacy, JIMT-1 tumor xenograft (tumor volume, body weight)
Conditions: control conjugate, 5 mg/kg i.v.; BALB/c nu/nu mice
Experimental: T-20-AB2.1, T-23-AB2.1, T-Int-102-D1-5 AB2.1, and T-Int0112-AB2.1 were prepared with 20 mg scale reaction. After purification by HIC column, final samples were concentrated to 5-10 mg/ml protein.
In vivo efficacy of T-20-AB2.1 and T-23-AB2.1 was measured by tumor xenograft studies in mice. Female BALB/c nu/nu were injected subcutaneously in the right flank with suspensions of 5×10^6 of JIMT-1 cells respectively in PBS. Mice were randomized into study groups when tumors reached approximately 150 mm^3. T-DM1 (5 mg/kg) and T-20-AB2.1 and T-23-AB2.1 conjugates (0.3 mg/kg, QW X^4) were given i.v. All treatment groups consisted of 6 to 10 animals per group, and tumor size was monitored twice weekly using caliper measurement. The tumor mass was calculated as volume=(width×width×length)/2.

Substance: T-DM1
- activity in JIMT-1 xenograft versus the conjugates of the disclosure: less active
